Source: patent publication US8710252B2, “Hepodxilin analog enantiomers” (priority 2006, dated 2014)
Entries after “also recorded” stand apart in the source; their conditions may differ.

Experiments:
[1] = test system: Caspase-3 cleavage in K562 cells; assay: Caspase-3 cleavage in K562 cells, Western blot; format: cell-based, human; conditions: 10 uM, 6 h; for Cleavage of caspase-3: FIG. 7
Experimental: Cell culture: Human leukemia K562 cells, obtained from ATCC (American Type Culture Collection), were maintained in RPMI 1640 medium containing 100 units/ml penicillin G, 100 μg/ml streptomycin, 10% (v/v) fetal calf serum in a humidified atmosphere with 5% CO2 at 37° C. The ability of the cells to exclude trypan Blue dye was used to assess cell viability.
Cell treatment: K562 cells were stored in 0.5% FBS for 15 min before the experiment. The cells, 6×10^5, were treated with DMSO as vehicle, or with PBT-3, PBT-4, or compounds A, B, C and D at 10 uM/dish (8 ml). Gleevec™ (STI) was used at 5 μM/dish. All experiments were without FBS and treatment lasted 6 h at 37° C. Treatment was terminated by washing the cells with ice-cold PBS buffer by centrifugation at 500×g for 5 min. Cells were lysed in buffer containing 20 mM Tris-HCl buffer, pH 7.4, 150 NaCl, 1 mM EDTA, 1 mM EGTA, 1% Triton X-100 2.5 mM sodium pyrophosphate, 1 mM beta-glycerophosphate, 1 mM sodium orthovanadate, 1 mM PMSF and 1 μM leupeptin/1 μM Aprotinin/1 μM pepstain A, on ice for 30 min. The lysates were clarified by centrifugation at 15,000×g for 15 min at 4° C. Lysates were subjected to protein assay (BCA, Pierce) and kept at −80° C.
Western blot: Thirty micrograms of protein from each sample were taken, and SDS-PAGE sample loading buffer was added. The mixture was boiled for 5 min. After centrifugation, the samples were loaded onto 15% SDS-PAGE gel and the gel was run (BioRad Protein II) for 2-3 h at 20 mA. The protein was transferred to a Trans-blot Nitrocellulose membrane (Millipore). Protein bands on the membranes were checked visually with Ponceau S-staining to ensure equivalent protein load/transfer comparing different samples. Membranes were blocked with 5% non-fat dry milk in PBS containing 0.5% Tween-20 for 1 h at room temperature, and then incubated with 1:1000 dilution of anti-caspase-3 antibody (BD Transduction Laboratories, Mississauga, Canada) overnight at 4° C. Secondary antibody of horseradish peroxidase anti-mouse antibody was used at 1:2000 dilution. Bound antibodies were detected by using enhanced chemilluminescence (ECL kit, Amersham Pharmacia Biotech) and the membranes were exposed to Hyper film for ECL detection. The same membrane was stripped by placing in buffer containing 62.5 mM Tris-HCl, pH 6.8/2% SDS/100 mM beta-mercaptoethanol at 50° C. for 30 min. The membrane was washed 3 times with PBS containing 0.5% Tween-20. The membrane was blocked by PBS buffer containing 0.5% Tween-20 and 5% skim milk. The anti-tubulin antibody (Santa Cruz, Calif.) was diluted 1:1000 and membrane analyzed by ECL as described above.

washed human platelets = assay: I-BOP evoked human platelet aggregation in vitro with washed platelets; format: cell-based; conditions: for IC50: washed human platelets, 5 ng I-BOP, compounds are methyl esters, read-out: IC50, inhibition of I-BOP evoked human platelet aggregation
Experimental: Washed human platelets were prepared as previously described (Pace-Asciak et al., 2002). The aggregation of platelets was carried out in a conventional 4-well aggregometer with stirring of the suspension maintained at 37° C. The platelet suspension was caused to aggregate with a thromboxane stable analog, I-BOP. The isolated enantiomer compounds and their respective racemates, PBT-3 and PBT-4, were added at various concentrations to cuvettes containing 375×10^6 platelets/ml, 1 min prior to the addition of 5 ng I-BOP (Cayman Chemicals, Ann Arbor, Mich.). Aggregation was monitored for an additional 5 min.

[2] = test system: human leukemic K562 cells; assay: Inhibition of 3H-methyl thymidine incorporation (cell proliferation) in K562 cells; format: cell-based; conditions: for IC50: 6 h treatment, compounds are methyl esters
Experimental: The human leukemic K562 cell line was established as previously reported (Qiao et al., 2003). Cells were maintained as suspension cultures in RPMI 1640 medium supplemented with 100 1.1/ml penicillin G, 100 μg/ml streptomycin, 10% (v/v) […] in a humidified atmosphere of 5% CO2 at 37° C. Cell viability was assessed by the exclusion of Trypan blue. Incorporation of ^3H-methyl thymidine into cell DNA was used as an assay for cell proliferation. Cells ([…]) were starved for 12 h, and were subsequently treated with the test compounds. Compounds A, B, C and D were made up at various concentrations in DMSO ([…] A, B, C and D. Concentrations were doubled for racemates PBT-3 and PBT-4) and 1 of these solutions was added/ml volume of cells. Cells were suspended in RPMI 1640 medium. At 6 h post-treatment at 37° C. the cells were fixed and denatured essentially as described in Qiao et al. (2003), harvested and passed through Whatman GF/C glass filters. The filters were washed and counted for radioactivity.

[3] = target: T1, Ga14-DBD-PPAR gamma-LBD fusion protein (Homo sapiens, UniProt P37231); assay: PPAR gamma transactivation assay (Gal4-PPAR gamma LBD / UASx4-TK-luc reporter); format: cell-based
T1 construct: expressed in transfected cells; host or cells: mouse embryonic fibroblasts (MEFs) or ME3 cells
T1 sequence (P37231 238-503 limits assumed): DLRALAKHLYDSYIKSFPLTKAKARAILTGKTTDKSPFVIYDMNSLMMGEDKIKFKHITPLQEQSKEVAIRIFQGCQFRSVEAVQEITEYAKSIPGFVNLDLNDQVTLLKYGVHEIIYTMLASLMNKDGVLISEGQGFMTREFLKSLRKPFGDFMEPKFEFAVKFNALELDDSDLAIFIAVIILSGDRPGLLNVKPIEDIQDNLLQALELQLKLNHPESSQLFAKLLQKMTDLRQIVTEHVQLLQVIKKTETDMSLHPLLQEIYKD
From the text: The UASx4-TK-luc reporter construct (where UAS refers to “upstream activator sequence”) contains four Ga14-responsive elements. The plasmid Ga14-PPAR gammaLBD encodes a Ga14-DBD-PPAR gamma-LBD fusion protein (i.e. the DNA-binding domain, DBD, of Ga14 fused to the ligand-binding domain, LBD, of PPAR gamma) capable of transactivating the UASx4-TK-luc reporter plasmid by binding to the UAS. The CMV-beta-galactosidase plasmid (where CMV is cytomegalovirus) was used for normalization of experimental values.
The cells were replated, typically in 24 well plates, so that at the time of transfection the cells were 50-70% confluent.
Briefly, per well in a 24 well plate, UASx4TKIuc (0.2 microg) Ga14-PPAR gammaLBD (or pM-hPPAR gamma-LBD; 0.1 microg) and CMV-beta-galactosidase (0.05 microg) in 30 μL DMEM (free of serum and antibiotics) was mixed with 30 microL DMEM (free of serum and antibiotics) containing 1 microL metafectenein. The mixture was incubated at room temperature for 20 min to allow formation of nucleic acid-lipid complexes and then approximately 60 micros was added to each well containing the 50-70% confluent cells. […] Cells were harvested after 12-24 hours and luciferase and beta-galactosidase activities were measured according to standard protocols.
Each experiment was carried out with triplicate samples with 0.1, 1 or 10 microM racemate or purified enantiomer.

| Compound | Cleavage of caspase-3 compared with Compound B [1] | Cleavage of caspase-3 [1] | Potency relative to Compound B, inhibition of platelet aggregation (washed human platelets; I-BOP evoked aggregation) | Potency relative to racemic PBT-3, inhibition of platelet aggregation (washed human platelets; I-BOP evoked aggregation) | Potency relative to racemic PBT-3, inhibition of platelet aggregation (washed human platelets; I-BOP evoked aggregation, listed as compound A) [fold] | IC50 (washed human platelets) [nM] | IC50 [2] [nM] | PPAR gamma transactivation, result in words [3] | PPAR Activation as % of positive control (Avandia) ([3]; Experiment 1, 0.1 microM) | PPAR Activation as % of positive control (Avandia) ([3]; Experiment 1, 1 microM) | PPAR Activation as % of positive control (Avandia) ([3]; Experiment 1, 10 microM) | PPAR Activation as % of positive control (Avandia) ([3]; Experiment 2, 0.1 microM) | PPAR Activation as % of positive control (Avandia) ([3]; Experiment 2, 1 microM) | PPAR Activation as % of positive control (Avandia) ([3]; Experiment 2, 10 microM) | PPAR Activation as % of positive control (Avandia) ([3]; Experiment 3, 0.1 microM) | PPAR Activation as % of positive control (Avandia) ([3]; Experiment 3, 1 microM) | PPAR Activation as % of positive control (Avandia) ([3]; Experiment 3, 10 microM) | Activity relative to Compound D, cell proliferation assay [2] [fold] |
| --- | --- | --- | --- | --- | --- | --- | --- | --- | --- | --- | --- | --- | --- | --- | --- | --- | --- | --- |
| CCCCC/C=C\C[C@H]1C[C@@H]1[C@H](O)/C=C\C/C=C\CCCC(=O)OC [Compound A, 10R-hydroxy-11S,12S-cyclopropyl-eicosa-5Z,8Z,14Z-trienoic acid methyl ester] | more active than Compound B | increased cleavage of caspase-3 | nearly four times as active; also recorded: about four times more potent | twice as potent | 2 | 27 ± 7 | 3600 | no apparent difference | 11 +/− 4 % of positive control (Avandia) | 14 +/− 4 % of positive control (Avandia) | 63 +/− 34 % of positive control (Avandia) | 4 +/− 1 % of positive control (Avandia) | 11 +/− 1 % of positive control (Avandia) | 34 +/− 1 % of positive control (Avandia) | 8 +/− 2 % of positive control (Avandia) | 12 +/− 1 % of positive control (Avandia) | 27 +/− 5 % of positive control (Avandia) |  |
| CCCCC/C=C\CC1CC1C(O)/C=C\C/C=C\CCCC(=O)OC (stereo not drawn) [Compound B, 10S-hydroxy-11R,12R-cyclopropyl-eicosa-5Z,8Z,14Z-trienoic acid methyl ester] |  | increased cleavage of caspase-3 |  |  |  | 101 ± 27 | 7600 | no apparent difference | 11 +/− 3 % of positive control (Avandia) | 21 +/− 3 % of positive control (Avandia) | 44 +/− 11 % of positive control (Avandia) | 4 +/− 1 % of positive control (Avandia) | 10 +/− 1 % of positive control (Avandia) | 35 +/− 11 % of positive control (Avandia) | 10 +/− 3 % of positive control (Avandia) | 16 +/− 6 % of positive control (Avandia) | 30 +/− 10 % of positive control (Avandia) |  |
| CCCCC/C=C\CC1CC1C(O)/C=C\C/C=C\CCCC(=O)OC (stereo not drawn) [Compound C, 10R-hydroxy-11R,12R-cyclopropyl-eicosa-5Z,8Z,14Z-trienoic acid methyl ester] |  | increased cleavage of caspase-3 |  |  |  | 60 ± 12 | 4000 |  | 14 +/− 4 % of positive control (Avandia) | 16 +/− 3 % of positive control (Avandia) | 38 +/− 8 % of positive control (Avandia) | 4 +/− 1 % of positive control (Avandia) | 6 +/− 1 % of positive control (Avandia) | 14 +/− 1 % of positive control (Avandia) | 9 +/− 3 % of positive control (Avandia) | 7 +/− 1 % of positive control (Avandia) | 17 +/− 3 % of positive control (Avandia) | 1.3 |
| CCCCC/C=C\CC1CC1C(O)/C=C\C/C=C\CCCC(=O)OC (stereo not drawn) [Compound D, 10S-hydroxy-11S,12S-cyclopropyl-eicosa-5Z,8Z,14Z-trienoic acid methyl ester] |  | increased cleavage of caspase-3 |  |  |  | 82 ± 18 | 5200 | more effectively than Compound C; also recorded: improved PPAR gamma transactivating activity over Compound C; also recorded: higher fold PPAR gamma transactivation than compound C | 14 +/− 3 % of positive control (Avandia) | 17 +/− 3 % of positive control (Avandia) | 69 +/− 15 % of positive control (Avandia) | 4 +/− 1 % of positive control (Avandia) | 5 +/− 1 % of positive control (Avandia) | 18 +/− 1 % of positive control (Avandia) | 7 +/− 2 % of positive control (Avandia) | 8 +/− 1 % of positive control (Avandia) | 33 +/− 7 % of positive control (Avandia) |  |
